Measurements taken from patent US10364233B2, “Piperidine derivative and methods of use thereof” (vTv Therapeutics LLC, priority 2016, dated 2019).
Read-outs that look alike come from different tables or passages of the source.

Key:
[1] = biological target: sRAGE (S100b as the RAGE ligand) (Homo sapiens, UniProt Q15109); experiment: General binding assay: inhibition of sRAGE binding to plate-bound S100b; conditions: n = 13, hydrochloride salt
Method: (§1) The following is one potential method for screening. S100b or β-amyloid (500 ng/100 μL/well) in 100 mM sodium bicarbonate/sodium carbonate buffer (pH 9.8) is loaded onto the wells of a NUNC Maxisorp flat bottom 96-well microtitre plate. The plate is incubated at 4° C. overnight. The wells are aspirated and treated with 50 mM imidazole buffer saline (pH 7.2) (with 5 mM CaCl2)/MgCl2) containing 1% bovine serum albumin (BSA) (300 μL/well) for 1 h at RT. The wells are aspirated.
(§2) The test compound is dissolved in nanopure water (concentration: 10-100 μM). DMSO may be used as co-solvent. 25 μL of test compound solution in 4% DMSO is added, along with 75 μL sRAGE (6 nM FAC) to each well and samples are incubated for 1 h at 37° C. The wells are washed several times with 155 mM NaCl pH 7.2 buffer saline and are soaked for several seconds between each wash.
(§3) Non-Radioactive Detection is Performed by Adding:
(§4) 10 μL Biotinylated goat F(ab′)2 Anti-mouse IgG. […]
(§5) 100 μL of complex is added to each well and incubation is allowed to proceed at rt for 1 h. […] The reaction is quenched with 10 μL of stop solution (0.5-1.0 N NaOH in 50% ethanol) and the absorbance is measured spectrophotometrically with a microplate reader at 405 nm. […]

[2] = biological target: sRAGE (β-amyloid as the RAGE ligand) (Homo sapiens, UniProt Q15109); experiment: General binding assay: inhibition of sRAGE binding to plate-bound β-amyloid; conditions: n = 11, hydrochloride salt
Sequence of UniProt Q15109 (Q15109 23-342 limits assumed): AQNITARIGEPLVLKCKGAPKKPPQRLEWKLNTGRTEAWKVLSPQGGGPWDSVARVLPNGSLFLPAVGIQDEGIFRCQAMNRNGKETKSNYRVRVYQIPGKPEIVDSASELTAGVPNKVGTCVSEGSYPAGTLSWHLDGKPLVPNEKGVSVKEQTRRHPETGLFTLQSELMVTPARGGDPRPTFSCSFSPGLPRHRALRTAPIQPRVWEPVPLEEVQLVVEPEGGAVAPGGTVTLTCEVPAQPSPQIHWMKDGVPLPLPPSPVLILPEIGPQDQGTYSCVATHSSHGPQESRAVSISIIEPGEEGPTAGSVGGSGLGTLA
Method: as §1, §2, §3, §4, §5

[3] = test system: S100b mediated TNF release from THP-1 cells (RAGE signaling); experiment: Functional assay: inhibition of S100b mediated TNF release from THP-1 cells; format: cell-based; conditions: Homo sapiens; THP-1 cells stimulated with bovine S100b; TNF-alpha by ELISA after 24 hours; hydrochloride salt
Method: Previously the literature has cited that THP-1 cells in response to RAGE ligands secrete TNF alpha (Yeh C-H, et al. Diabetes. Vol. 50, June 2001, pp. 1495-1504). The following assay method may be used to identify compounds of Formula (I) or pharmaceutically acceptable salts thereof which are useful as antagonists of RAGE signaling.
The myeloid cell line, THP-1 (ATTC # TIB-202), is cultured in RPMI-1640 media (ATCC, Cat #30-2001) supplemented with fetal bovine serum to a final concentration of 10% by volume and Penicillin-Streptomycin (Gibco, Cat #0.15140-122). Alternatively, media may be formulated using RPMI 1640 (Bio-Whitaker #12-702F) supplemented with 2 mM L-glutamine (Gibco #12381-018) adjusted to contain 1.5 g/L sodium bicarbonate (Gibco #25080-094), 4.5 g/L glucose, 10 mM HEPES (Cellgro #25-060-L1) and 1.0 mM sodium pyruvate (Gibco #11360-070) and supplemented with 0.05 mM 2-mercaptoethanol, […] per ATCC instructions. During culture, the culture cells may be maintained at a density between 5×10^4 and 1×10^6 viable cells/mL. […]
The amount of TNF-alpha secreted by the THP-1 cells may be measured 24 hours after the addition of the stimulant proteins to the cell culture using a commercially available ELISA kit (R&D Systems, Minneapolis, Minn. # DY210). […] The plate may be read at 450 nm within 30 minutes. […]

Sequence of UniProt Q15109 (Q15109 23-342 limits assumed): as above

Cc1nn(C2CCCCC2)c(C)c1S(=O)(=O)N1CCC(CN(CC(C)C)S(=O)(=O)c2ccc(CNCC3CCNCC3)cc2)(c2ccccc2)CC1 [compound of Formula (I), N-[1-(1-Cyclohexyl-3,5-dimethyl-1H-pyrazole-4-sulfonyl)-4-phenyl-piperidin-4-ylmethyl]-N-isobutyl-4-{[(piperidin-4-ylmethyl)-amino]-methyl}-benzenesulfonamide] gave an IC50 ([1]; average, read-out: IC50 (S100b) average) of 420 nM, an IC50 ([1]; range of individual determinations, read-out: IC50 (S100b)) of 220 to 620 nM and an IC50 ([2]; average, read-out: IC50 (β-amyloid) average) of 400 nM. For the same compound, the IC50 ([2]; range of individual determinations, read-out: IC50 (β-amyloid)) was 270 to 600 nM and the IC50 [3] was about 500 nM.
